In one data set the target is human BCL6 BTB domain (Homo sapiens, UniProt P41182). The data set can be described thus: biochemical. The conditions noted are these: for BCL6 TR-FRET mean pIC50: mean of replicates; for LE: ligand efficiency, 1.4*(pIC50)/HAC from TR-FRET; for LLE: lipophilic ligand efficiency from TR-FRET pIC50 and MoKa logD7.4. An excerpt:
6. Supplementary tables … S-17
Table S1: summary statistics and individual replicate values … S-17 […]
1. Supplementary experimental: protein production, purification and crystallography 1.1 BCL6 constructs used for assays and crystallography
A first construct of BCL6 BTB domain, which we will refer to as Trx-6His-HRV3C-BCL6, was obtained […]
3C protease cleavage site. For the TR-FRET assay, the Trx-6His-HRV3C-BCL6 protein construct was […]
used without cleaving the tag, as a 6His was needed to bind to the anti-6His-Terbium antibody. […]
For both plasmid constructs described above, transformed BL21-AI E. coli cells were grown in LB […]
carried out at 18 °C for 18 hours. Cells were harvested by centrifugation (5500 g for 30 minutes at 4 […]
oC) and stored at -80 °C.
2. Supplementary experimental: biological assay conditions
IC50 values were determined using […]
a sigmoidal four-parameter logistic fit equation.
Individual replicates shown in supplementary
Background: In TR-FRET formats the signal depends on donor and acceptor labels being close together.

Data set [1] in a line: HPLC kinetic solubility assay. It counts as physicochemical. The conditions noted are these: kinetic solubility by HPLC, 10 mM phosphate-buffered saline pH 7.4, 1% DMSO. The procedure:
3.2 HPLC solubility assay
DMSO. Following shaking of the suspension on a Bohdan Shaker at 500 rpm for 2 hours at room […]
200 µL of the supernatant was transferred to a 2 mL Agilent vial containing 50 µL of DMSO (Sigma […]
detection using an external standard which was prepared by pipetting 10 µL of the same batch of […]
The detail of the HPLC method is as following: chromatographic separation at 30°C is carried out over a 5 minute gradient elution method from 90:10 to 10:90 water:methanol (both modified with 0.1% formic acid) at a flow rate of 1.5 mL/min. Calibration curve is prepared by injecting 0.5, 2.5, and 5 µL of compound external standard.
62.5 µL of compound solubility sample. […]

Data set [2] is described as follows: NMR kinetic solubility assay. It counts as physicochemical. The conditions noted are these: kinetic solubility by NMR, HEPES buffer pH 8, 4% DMSO. The protocol: 3. Supplementary experimental: physicochemical assays
The plate was then sealed and incubated at room temperature for 20 hours, without shaking. The plate was centrifuged again for 1 minute at […]
spectrometer equipped with a 5 mm TCI-CryoProbe. […]
deuterated solvent. […] All NMR data were acquired at the […]
contained 16k time-domain data points. Relaxation delay was set to 20 sec. Water signal was […]
The quantification of the compound concentration was carried out using MestReNova

Where [3] appears, read: BCL6 TR-FRET IC50 individual replicates, single replicates, 10 nM BCL6 for early examples, else 1 nM.
[4] abbreviates: read-out: BCL6 TR-FRET IC50, geometric mean of replicates.
The mark [5] stands for this setting: BCL6 TR-FRET mean pIC50, mean of replicates.
Where [6] appears, read: read-out: BCL6 TR-FRET IC50 individual replicates, single replicates, 10 nM BCL6 for early examples, else 1 nM.

SMILES strings stand for the structures. Values joined by “and” are separate entries in the source; they are usually repeats but may differ in a detail not shown here. Equal values may be shown once. Read-outs that look alike come from different tables or passages of the source.

For orientation: IC50 means the concentration that gives 50% inhibition. Regarding `CC1CCc2c(c3cc(Nc4ccnc(Cl)c4C#N)ccc3n(C)c2=O)N1` (centres unmarked) [Compound 5b, 2-Chloro-4-((2,6-dimethyl-5-oxo-1,2,3,4,5,6-hexahydrobenzo[h][1,6]-naphthyridin-9-yl)amino)nicotinonitrile], the IC50 at human BCL6 BTB domain (setting [3]) is 1.03 µM and 0.96 µM and 1.46 µM and 1.67 µM and 6.96 µM and 4.82 µM; on human BCL6 BTB domain (setting [4]), 2.08 µM and 2.1 µM. Further, on human BCL6 BTB domain, the “BCL6 TR-FRET mean pIC50” value is reported as 5.68. Further, the “Aq. Sol” value in data set [1] came to 1.8 µM.
On to `Cn1c(=O)c2c(c3cc(Nc4ccnc(Cl)c4C#N)ccc31)NC(C(F)F)CCO2` (centres unmarked) [Compound 11e, 2-Chloro-4-((2-(difluoromethyl)-7-methyl-6-oxo-1,2,3,4,6,7-hexahydro-[1,4]oxazepino[2,3-c]quinolin-10-yl)amino)nicotinonitrile], for which the IC50 is 2.15 µM and 1.54 µM and 2.5 µM against human BCL6 BTB domain (setting [3]); 2.02 µM and 2 µM at human BCL6 BTB domain (setting [4]). In addition, the “BCL6 TR-FRET mean pIC50” value at human BCL6 BTB domain is given as 5.69. Also, the “Aq. Sol” value in data set [2] turned out to be 119 µM.
Turning to `CNC(=O)COc1cc2cc(Nc3nc(N4C[C@H](C)C[C@H](C)C4)ncc3Cl)ccc2n(C)c1=O` [BI-3802, reference compound], the IC50 against human BCL6 BTB domain (setting [3]) was 0.012 µM and 0.051 µM and 0.025 µM and 0.107 µM and 0.039 µM and 0.021 µM. This compound also showed an IC50 against human BCL6 BTB domain (setting [5]) of 0.0331 µM. At human BCL6 BTB domain, the LE is 0.31 and the LLE is given as 3.98.
Take `CCNc1c(C)c(=O)n(C)c2ccc(Nc3ccnc(Cl)c3C#N)cc12` [Compound 4, 2-Chloro-4-((4-(ethylamino)-1,3-dimethyl-2-oxo-1,2-dihydroquinolin-6-yl)amino)nicotinonitrile]: the 50% inhibitory concentration (IC50) was 6.09 µM and 4.59 µM and 6.04 µM on human BCL6 BTB domain (setting [3]); 5.58 µM and 5.6 µM on human BCL6 BTB domain (setting [4]); 5.57 µM and 5.76 µM on human BCL6 BTB domain (setting [6]). Moreover, the “BCL6 TR-FRET mean pIC50” value on human BCL6 BTB domain came out at 5.25.
As to `CC1Nc2c(c(=O)n(C)c3ccc(Nc4ccnc(Cl)c4C#N)cc23)OCC1(C)C` (centres unmarked) [Compound 13c, 2-Chloro-4-((2,3,3,7-tetramethyl-6-oxo-1,2,3,4,6,7-hexahydro-[1,4]oxazepino[2,3-c]quinolin-10-yl)amino)nicotinonitrile], the “Aq. Sol” value in data set [2] was found to be 31 µM.
Take `CC(C)C1CCOc2c(c3cc(Nc4ccnc(Cl)c4C#N)ccc3n(C)c2=O)N1` (centres unmarked) [Compound 11d, 2-Chloro-4-((2-isopropyl-7-methyl-6-oxo-1,2,3,4,6,7-hexahydro-[1,4]oxazepino[2,3-c]quinolin-10-yl)amino)nicotinonitrile]: the IC50 against human BCL6 BTB domain (setting [3]) was 2.41 µM and 3.46 µM and 3.64 µM; on human BCL6 BTB domain (setting [4]), 3.12 µM and 3.1 µM. Moreover, the “BCL6 TR-FRET mean pIC50” value at human BCL6 BTB domain was determined as 5.51. Moreover, the “Aq. Sol” value in data set [2] is 40 µM.
In the case of `Cn1c(=O)c2c(c3cc(Nc4ccnc(Cl)c4C#N)ccc31)NC(C1CCC1)CCO2` (centres unmarked) [Compound 11c, 2-Chloro-4-((2-cyclobutyl-7-methyl-6-oxo-1,2,3,4,6,7-hexahydro-[1,4]oxazepino[2,3-c]quinolin-10-yl)amino)nicotinonitrile], the IC50 against human BCL6 BTB domain (setting [3]) is 3.57 µM and 5.26 µM; on human BCL6 BTB domain (setting [4]) it was 4.31 µM and 4.3 µM; at human BCL6 BTB domain (setting [6]) it was 4.27 µM. At human BCL6 BTB domain, the “BCL6 TR-FRET mean pIC50” value was found to be 5.37. The “Aq. Sol” value in data set [2] worked out at 26 µM.
Consider `C[C@H]1COCc2c(c3cc(Nc4ccnc(Cl)c4C#N)ccc3n(C)c2=O)N1` [Compound 8, (S)-2-Chloro-4-((2,7-dimethyl-6-oxo-1,2,3,5,6,7-hexahydro-[1,4]oxazepino[6,5-c]quinolin-10-yl)amino)nicotinonitrile], for which the concentration for half-maximal inhibition (IC50) was 2.35 µM on human BCL6 BTB domain (setting [3]); 2.24 µM and 2.2 µM on human BCL6 BTB domain (setting [4]); 2.19 µM and 2.18 µM on human BCL6 BTB domain (setting [6]). Besides, the “BCL6 TR-FRET mean pIC50” value on human BCL6 BTB domain is recorded as 5.65.
With `N#Cc1c(Nc2ccc3[nH]c(=O)c4c(c3c2)NCCC4)ccnc1Cl` [Compound 5a, 2-Chloro-4-((5-oxo-1,2,3,4,5,6-hexahydrobenzo[h][1,6]naphthyridin-9-yl)amino)nicotinonitrile], the IC50 was 7.06 µM and 6.93 µM and 3.89 µM and 7.37 µM against human BCL6 BTB domain (setting [3]); 6.12 µM and 6.1 µM on human BCL6 BTB domain (setting [4]). Further, the “BCL6 TR-FRET mean pIC50” value at human BCL6 BTB domain was determined as 5.21. Besides, the “Aq. Sol” value in data set [1] came to 12 µM.
Take `CCC1CCOc2c(c3cc(Nc4ccnc(Cl)c4C#N)ccc3n(C)c2=O)N1` (centres unmarked) [Compound 11b, 2-Chloro-4-((2-ethyl-7-methyl-6-oxo-1,2,3,4,6,7-hexahydro-[1,4]oxazepino[2,3-c]quinolin-10-yl)amino)nicotinonitrile]: the IC50 against human BCL6 BTB domain (setting [3]) is 0.454 µM and 0.496 µM and 1.02 µM; at human BCL6 BTB domain (setting [4]), 0.612 µM and 0.61 µM. In addition, the “BCL6 TR-FRET mean pIC50” value at human BCL6 BTB domain is given as 6.21. Moreover, in data set [2], the “Aq. Sol” value was 96 µM.
`CC1Nc2c(c(=O)n(C)c3ccc(Nc4ccnc(Cl)c4C#N)cc23)OCC12CC2` (centres unmarked) [Compound 13d, 2-Chloro-4-((2′,7′-dimethyl-6′-oxo-1′,2′,6′,7′-tetrahydro-4′H-spiro[cyclopropane-1,3′-[1,4]oxazepino[2,3-c]quinolin]-10′-yl)amino)nicotinonitrile]: the half-inhibitory concentration (IC50) was 1.07 µM and 2.07 µM and 1.87 µM against human BCL6 BTB domain (setting [3]); 1.59 µM and 1.6 µM on human BCL6 BTB domain (setting [4]). Besides, the “BCL6 TR-FRET mean pIC50” value on human BCL6 BTB domain came out at 5.8. For the same compound, the “Aq. Sol” value in data set [2] amounted to 126 µM.
For the compound `C[C@@H]1CCOc2c(c3cc(Nc4ccnc(Cl)c4C#N)ccc3n(C)c2=O)N1` [Compound 9b, (R)-2-Chloro-4-((2,7-dimethyl-6-oxo-1,2,3,4,6,7-hexahydro-[1,4]oxazepino-[2,3-c]quinolin-10-yl)amino)nicotinonitrile], in data set [2], the “Aq. Sol” value is listed as 190^+ μM.
`CC1CC(C)(C)Oc2c(c3cc(Nc4ccnc(Cl)c4C#N)ccc3n(C)c2=O)N1` (centres unmarked) [Compound 13b, 2-Chloro-4-((2,4,4,7-tetramethyl-6-oxo-1,2,3,4,6,7-hexahydro-[1,4]oxazepino[2,3-c]quinolin-10-yl)amino)nicotinonitrile]: the IC50 on human BCL6 BTB domain (BCL6 TR-FRET IC50, geometric mean of replicates) was above 9.8 µM; on human BCL6 BTB domain (setting [3]) it was 8.7 µM and 16.5 µM and > 6.6 µM. Moreover, the “Aq. Sol” value in data set [2] was 12 µM.
As to `Cn1c(=O)c2c(c3cc(Nc4ccnc(Cl)c4C#N)ccc31)NCCCO2` [Compound 10, 2-Chloro-4-((7-methyl-6-oxo-1,2,3,4,6,7-hexahydro-[1,4]oxazepino[2,3-c]quinolin-10-yl)amino)nicotinonitrile], the IC50 against human BCL6 BTB domain (setting [3]) is 15.6 µM and 22.4 µM; at human BCL6 BTB domain (setting [4]), 18.7 µM and 19 µM. Besides, on human BCL6 BTB domain, the “BCL6 TR-FRET mean pIC50” value came to 4.73. Moreover, the “Aq. Sol” value in data set [1] turned out to be 12 µM.
For `CNC(=O)COc1cc2cc(Nc3nc(N4CCC(C(=O)N(C)C)CC4)ncc3Cl)cc(OC)c2n(C)c1=O` [BI-3812, reference compound], the IC50 is 0.003 µM against human BCL6 BTB domain (setting [3]) and 0.00302 µM at human BCL6 BTB domain (setting [5]). Further, at human BCL6 BTB domain, the LE is 0.31. This compound also gave an LLE on human BCL6 BTB domain of 6.76.
For `C[C@H]1C[C@H](C)Oc2c(c3cc(Nc4ccnc(Cl)c4C#N)ccc3n(C)c2=O)N1` [Compound 13a, 2-Chloro-4-(((2S,4S)-2,4,7-trimethyl-6-oxo-1,2,3,4,6,7-hexahydro-[1,4]oxazepino[2,3-c]quinolin-10-yl)amino)nicotinonitrile], the “Aq. Sol” value in data set [2] turned out to be 114 µM.
Take `C[C@H]1CCOc2c(c3cc(Nc4ccnc(Cl)c4C#N)ccc3n(C)c2=O)N1` [Compound 9a, (S)-2-Chloro-4-((2,7-dimethyl-6-oxo-1,2,3,4,6,7-hexahydro-[1,4]oxazepino-[2,3-c]quinolin-10-yl)amino)nicotinonitrile]: the “Aq. Sol” value in data set [2] was 200^+ μM and 199 μM.
Regarding `Cn1c(=O)c2c(c3cc(Nc4ccnc(Cl)c4C#N)ccc31)N[C@H](C1CC1)C(F)(F)CO2` [Compound 14, (R)-2-Chloro-4-((2-cyclopropyl-3,3-difluoro-7-methyl-6-oxo-1,2,3,4,6,7-hexahydro-[1,4]oxazepino[2,3-c]quinolin-10-yl)amino)nicotinonitrile], the IC50 is 0.615 µM and 0.397 µM on human BCL6 BTB domain (setting [3]); 0.494 µM and 0.49 µM on human BCL6 BTB domain (setting [4]). For the same compound, the “BCL6 TR-FRET mean pIC50” value on human BCL6 BTB domain was found to be 6.31.
